Source: US20100010078A1, “METHODS OF TREATING ANDROGEN DEPENDENT PROSTATE CANCER BY ADMINISTERING AN ACTIVE PHARMACEUTICAL INGREDIENT BEING FISETIN, 3,3',4',7-TETRAHYDROXYFLAVONE OR A DERIVATIVE THEREOF, IN AN ORAL, TRANSDERMAL OR TOPICAL DOSAGE FORM” (priority 2008, published 2010)
Read-outs that look alike come from different tables or passages of the source.

Legend:
PC-3 cells = test: MTT cell viability assay, PC-3 cells; format: cell-based; details: Homo sapiens, read-out: decrease in cell viability; for cytotoxicity at 10 µM: PC-3, fisetin 10 μM; for cytotoxicity at 20 µM: PC-3, fisetin 20 μM; for cytotoxicity at 40 µM: PC-3, fisetin 40 μM; for cytotoxicity at 60 µM: PC-3, fisetin 60 μM
Experimental: (§1) obtained from ATCC (Manassas, Va.). LNCaP cells were cultured in Dulbecco's Modified Eagle's medium supplemented with 5% heat-inactivated fetal bovine serum and 1% penicillin/streptomycin (P-S). CWR22Ru1 and PC-3 cells were grown in RPMI 1640 (Invitrogen) supplemented with 10% fetal bovine serum and 1% P-S. Human prostate epithelial cells (PrEC) were obtained from Cambrex Bioscience (Walkersville, Md.) and grown in prostate epithelial basal cell medium (Cambrex Bioscience) according to the manufacturer's instructions. The cells were maintained under standard cell culture conditions at 37° C. and 5% CO2 in a humid environment. Fisetin dissolved in dimethyl sulfoxide (final concentration 0.1% v/v) was used for the treatment of cells. The cells (60-70% confluent) were treated with fisetin (10-60 μM) for 24 and 48 h in complete growth medium.
(§2) Cell viability. The effect of fisetin on the viability of cells was determined by 3-[4,5-dimethylthiazol-2-yl]-2,5-diphenyl tetrazoliumbromide assay. LNCaP, CWR22Ru1, PC-3 and PrEC cells were plated at 1×10^4 cells per well in 200 μl of complete culture medium containing 10-60 μM concentrations of fisetin in 96-well microtiter plates for 24 and 48 h. After incubation for specified times at 37° C. in a humidified incubator, 3-[4,5-dimethylthiazol-2-yl]-2,5-diphenyl tetrazoliumbromide (5 mg/ml in PBS) was added to each well and incubated for 2 h, after which the plate was centrifuged at 1,800×g for 5 min at 4° C. The absorbance was recorded on a microplate reader at the wavelength of 540 nm. The effect of fisetin on growth inhibition was assessed as percent cell viability where DMSO-treated cells were taken as 100% viable. DMSO at the concentrations used was without any effect on cell viability.

[1] = biological target: T1, ligand binding domain (LBD) of androgen receptor (AR) (Homo sapiens, UniProt P10275); test: Competition with labeled AR ligand at the ligand binding domain (FIG. 3)
T1 sequence (P10275 669-900 limits assumed): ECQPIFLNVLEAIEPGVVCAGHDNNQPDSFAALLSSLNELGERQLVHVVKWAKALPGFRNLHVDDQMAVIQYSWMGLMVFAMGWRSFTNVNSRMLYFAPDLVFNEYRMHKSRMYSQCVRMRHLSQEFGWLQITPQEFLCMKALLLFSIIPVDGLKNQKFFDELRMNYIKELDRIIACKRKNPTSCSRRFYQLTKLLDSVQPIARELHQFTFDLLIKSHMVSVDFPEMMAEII

[2] = tested on: Bad, Bax, Bcl2 and Bcl-xL; test: Silencing of Akt by siRNA, Bcl2-family proteins in LNCaP cells; format: cell-based, human; details: LNCaP transfected with Akt-siRNA, fisetin 40 μM, 48 h
Experimental: Silencing of Akt by Small Interfering RNA. LNCaP cells were transfected with Akt-siRNA (75 nmol) and scrambled siRNA (75 nmol) procured from Dharmacon (Lafayette, Colo.) using the Nucleofection Kit R specific for LNCaP transfection from Amaxa Biosystems (Gaithersburg, Md.). Cells were resuspended in a solution from nucleofector kit R following the manufacturer's guidelines. 100 μl of nucleofector solution R was mixed with 2×10^6 cells and siRNA. They were then transferred to the cuvette provided with the kit and were nucleofected with an Amaxa Nucleofector apparatus. Cells were transfected using the T-001 pulsing parameter and were transferred into 100-mm plates containing 37° C. prewarmed culture medium. After transfection, cells were cultured and the medium was replaced with fresh medium. Cells were treated with 40 μM fisetin for 48 h, and protein lysates were prepared. Using 2 μg of GFP we observed 70-80% transfection efficiency with this protocol.

cytochrome c = test: Detection of cytochrome c release into cytosol; format: cell-based, human; details: LNCaP, fisetin 10-60 μM, 48 h
Experimental: Detection of cytochrome c release. After the treatment of LNCaP cells with fisetin (10-60 μM; 48 h), the mitochondrial and cytosolic fractions were prepared according to manufacturer's instructions. After the separation of cytosolic and mitochondrial fraction, 40 μg protein was resolved over 12% polyacrylamide gels and immunoblotted with the cytochrome c and Cox-4 antibodies.

Bax and Bcl-2 = test: Western blot, Bax and Bcl-2 in LNCaP cells; format: cell-based, human; details: fisetin 10-60 μM, 48 h
Experimental: (§3) Protein extraction and western blotting. Following the treatment of LNCaP cells with fisetin (10-60 μM; 48 h), the media was aspirated, the cells were washed with cold PBS (pH 7.4), and ice-cold lysis buffer (50 mM Tris-HCl, 150 mM NaCl, 1 mM EGTA, 1 mM EDTA, 20 mM NaF, 100 mM Na3VO4, 0.5% NP-40, 1% Triton X-100, 1 mM PMSF (pH 7.4)) with freshly added protease inhibitor cocktail (Protease Inhibitor Cocktail Set III, Calbiochem, La Jolla, Calif.) over ice for 30 min. The cells were scraped and the lysate was collected in a microfuge tube and passed through a needle to break up the cell aggregates. The lysate was cleared by centrifugal ion al 14,000 g for 15 min at 4° C. and the supernatant (whole cell lysate) was used or immediately stored at −8020 C.
(§4) For western blotting, 30-50 μg protein was resolved over 8-12% polyacrylamide gels and transferred to a nitrocellulose membrane. The blot was blocked in blocking buffer (5% nonfat dry milk/1% Tween 20; in 20 mM TBS, pH 7.6) for 1 hr at room temperature, incubated with appropriate monoclonal or polyclonal primary antibody in blocking buffer for 1.5 h to overnight at 4° C., followed by incubation with anti-mouse or anti-rabbit secondary antibody horseradish peroxidase conjugate obtained from Amersham Life Science Inc. and detected by chemiluminescence and autoradiography using XAR-5 film obtained from Eastman Kodak Co. (Rochester, N.Y., USA). Densitometric measurements of the band in Western blot analysis were performed using digitalized scientific software program UN-SCAN-IT (Silk Scientific Corporation. Orem, Utah.

WAF1/p21 and KIP1/p27 = test: Western blot, WAF1/p21 and KIP1/p27 in LNCaP cells; format: cell-based, human; details: fisetin 10-60 μM, 48 h
Experimental: as §3, with “The lysate was cleared by centrifugal ion al 14,000 g for 15 min at 4° C. and the supernatant (whole cell lysate) was used or immediately stored at −8020 C.” left out
as §4, with “Densitometric measurements of the band in Western blot analysis were performed using digitalized scientific software program UN-SCAN-IT (Silk Scientific Corporation. Orem, Utah.” left out

LNCaP cells = test: MTT cell viability assay, LNCaP cells; format: cell-based; details: Homo sapiens, read-out: decrease in cell viability; for cytotoxicity at 10 µM: fisetin 10 μM; for cytotoxicity at 20 µM: fisetin 20 μM; for cytotoxicity at 40 µM: fisetin 40 μM; for cytotoxicity at 60 µM: fisetin 60 μM
Experimental: as §1, §2

XIAP and Smac/DIABLO = test: Western blot, XIAP and Smac/DIABLO in LNCaP cells; format: cell-based, human; details: fisetin 10-60 μM, 48 h
Experimental: as §3, with “The lysate was cleared by centrifugal ion al 14,000 g for 15 min at 4° C. and the supernatant (whole cell lysate) was used or immediately stored at −8020 C.” left out
as §4, with “Densitometric measurements of the band in Western blot analysis were performed using digitalized scientific software program UN-SCAN-IT (Silk Scientific Corporation. Orem, Utah.” left out

competition with labeled AR ligand, interaction with LBD [1]: competes with a labeled AR ligand
SMILES: O=c1c(O)c(-c2ccc(O)c(O)c2)oc2cc(O)ccc12 [fisetin, 3,3′,4′,7-tetrahydroxyflavone]
cytotoxicity at 10 µM (PC-3 cells; 24 h): 7%
cytotoxicity at 10 µM (PC-3 cells; 48 h): 11%
cytotoxicity at 20 µM (PC-3 cells; 24 h): 18%
cytotoxicity at 20 µM (PC-3 cells; 48 h): 25%
cytotoxicity at 40 µM (PC-3 cells; 24 h): 24%
cytotoxicity at 40 µM (PC-3 cells; 48 h): 32%
cytotoxicity at 60 µM (PC-3 cells; 24 h): 33%
cytotoxicity at 60 µM (PC-3 cells; 48 h): 46%
Bad, Bax, Bcl2 and Bcl-xL protein expression in Akt-siRNA treated cells [2]: augmented the increase in Bad and Bax and decrease in Bcl2 and Bcl-xL
levels of cytochrome c in the cytosol (cytochrome c): elevated dose-dependently
protein expression of Bax (Bax and Bcl-2): significant increase
protein expression of Bcl-2 (Bax and Bcl-2): significantly decreased
ratio of Bax to Bcl-2 (Bax and Bcl-2): significant dose-dependent shift
protein expression of WAF1/p21 and KIP1/p27 (WAF1/p21 and KIP1/p27): induction
cytotoxicity at 10 µM (LNCaP cells; 24 h): 15%
cytotoxicity at 10 µM (LNCaP cells; 48 h): 19%
cytotoxicity at 20 µM (LNCaP cells; 24 h): 33%
cytotoxicity at 20 µM (LNCaP cells; 48 h): 40%
cytotoxicity at 40 µM (LNCaP cells; 24 h): 45%
cytotoxicity at 40 µM (LNCaP cells; 48 h): 49%
cytotoxicity at 60 µM (LNCaP cells; 24 h): 57%
cytotoxicity at 60 µM (LNCaP cells; 48 h): 62%
protein expression of Smac/DIABLO (XIAP and Smac/DIABLO): induction
protein expression of XIAP (XIAP and Smac/DIABLO): inhibition
